{"source": "ChEMBL document CHEMBL1201862", "about": "“PubChem BioAssay data set” (2004)", "experiment_in_all_cases": "NCI anticancer screen, dose series, 48 h", "key": {"786-0": {"test_system": "786-0"}, "A498": {"test_system": "A498"}, "A549": {"test_system": "A549"}, "ACHN": {"test_system": "ACHN"}, "CAKI-1": {"test_system": "CAKI-1"}, "CCRF-CEM": {"test_system": "CCRF-CEM"}, "COLO 205": {"test_system": "COLO 205"}, "DMS-114": {"test_system": "DMS-114"}, "DMS-273": {"test_system": "DMS-273"}, "EKVX": {"test_system": "EKVX"}, "HCC 2998": {"test_system": "HCC 2998"}, "HCT-116": {"test_system": "HCT-116"}, "HCT-15": {"test_system": "HCT-15"}, "HL-60": {"test_system": "HL-60"}, "HOP-62": {"test_system": "HOP-62"}, "HT-29": {"test_system": "HT-29"}, "IGROV-1": {"test_system": "IGROV-1"}, "K562": {"test_system": "K562"}, "KM-20L2": {"test_system": "KM-20L2"}, "KM12": {"test_system": "KM12"}, "LOX IMVI": {"test_system": "LOX IMVI"}, "M14": {"test_system": "M14"}, "M19-MEL": {"test_system": "M19-MEL"}, "MOLT-4": {"test_system": "MOLT-4"}, "Malme-3M": {"test_system": "Malme-3M"}, "NCI-H226": {"test_system": "NCI-H226"}, "NCI-H23": {"test_system": "NCI-H23"}, "NCI-H460": {"test_system": "NCI-H460"}, "NCI-H522": {"test_system": "NCI-H522"}, "OVCAR-3": {"test_system": "OVCAR-3"}, "OVCAR-4": {"test_system": "OVCAR-4"}, "OVCAR-5": {"test_system": "OVCAR-5"}, "OVCAR-8": {"test_system": "OVCAR-8"}, "RPMI-8226": {"test_system": "RPMI-8226"}, "RXF 393": {"test_system": "RXF 393"}, "SF-268": {"test_system": "SF-268"}, "SF-295": {"test_system": "SF-295"}, "SF-539": {"test_system": "SF-539"}, "SK-MEL-28": {"test_system": "SK-MEL-28"}, "SK-MEL-2": {"test_system": "SK-MEL-2"}, "SK-MEL-5": {"test_system": "SK-MEL-5"}, "SK-OV-3": {"test_system": "SK-OV-3"}, "SN12C": {"test_system": "SN12C"}, "SNB-19": {"test_system": "SNB-19"}, "SNB-75": {"test_system": "SNB-75"}, "SNB-78": {"test_system": "SNB-78"}, "SR": {"test_system": "SR"}, "SW-620": {"test_system": "SW-620"}, "TK-10": {"test_system": "TK-10"}, "U-251": {"test_system": "U-251"}, "UACC-257": {"test_system": "UACC-257"}, "UACC-62": {"test_system": "UACC-62"}, "UO-31": {"test_system": "UO-31"}}, "note": "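Growth conditions: 96-well plates. Treatment: test compound, 48 hours, 5 concentrations. Analysis: linear interpolation between bracketing concentrations; unreached endpoints set to highest concentration. Abbreviation: GI50, concentration required for 50% inhibition of growth.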 Active and inactive are the calls of the source. Cut-off read from the data, not from the text of the source: active = GI50 up to about 1.1 µM and inactive = higher.", "data": [{"smiles": "CN(C)C(=S)Nc1nnc(NC23CC4CC(CC(C4)C2)C3)s1.[O-][Cl+3]([O-])([O-])O", "values": [{"measurement": "GI50", "setting": "786-0", "result": "16.6 µM (inactive)"}, {"measurement": "GI50", "setting": "A498", "result": "15 µM (inactive)"}, {"measurement": "GI50", "setting": "A549", "result": "12.4 µM (inactive)"}, {"measurement": "GI50", "setting": "ACHN", "result": "21.8 µM (inactive)"}, {"measurement": "GI50", "setting": "CAKI-1", "result": "20.1 µM (inactive)"}, {"measurement": "GI50", "setting": "CCRF-CEM", "result": "15 µM (inactive)"}, {"measurement": "GI50", "setting": "COLO 205", "result": "19.8 µM (inactive)"}, {"measurement": "GI50", "setting": "DMS-114", "result": "19.4 µM (inactive)"}, {"measurement": "GI50", "setting": "DMS-273", "result": "20.6 µM (inactive)"}, {"measurement": "GI50", "setting": "EKVX", "result": "23 µM (inactive)"}, {"measurement": "GI50", "setting": "HCC 2998", "result": "18.9 µM (inactive)"}, {"measurement": "GI50", "setting": "HCT-116", "result": "13.3 µM (inactive)"}, {"measurement": "GI50", "setting": "HCT-15", "result": 13.6, "unit": "µM"}, {"measurement": "GI50", "setting": "HL-60", "result": "7.57 µM (inactive)"}, {"measurement": "GI50", "setting": "HOP-62", "result": "18.6 µM (inactive)"}, {"measurement": "GI50", "setting": "HT-29", "result": "5.81 µM (inactive)"}, {"measurement": "GI50", "setting": "IGROV-1", "result": "30.1 µM (inactive)"}, {"measurement": "GI50", "setting": "K562", "result": "15.8 µM (inactive)"}, {"measurement": "GI50", "setting": "KM-20L2", "result": "11.1 µM (inactive)"}, {"measurement": "GI50", "setting": "KM12", "result": "18.7 µM (inactive)"}, {"measurement": "GI50", "setting": "LOX IMVI", "result": "17.5 µM (inactive)"}, {"measurement": "GI50", "setting": "M14", "result": "16 µM (inactive)"}, {"measurement": "GI50", "setting": "M19-MEL", "result": "19.6 µM (inactive)"}, {"measurement": "GI50", "setting": "MOLT-4", "result": "14.8 µM (inactive)"}, {"measurement": "GI50", "setting": "Malme-3M", "result": "17.3 µM (inactive)"}, {"measurement": "GI50", "setting": "NCI-H226", "result": "19.4 µM (inactive)"}, {"measurement": "GI50", "setting": "NCI-H23", "result": "10 µM (inactive)"}, {"measurement": "GI50", "setting": "NCI-H460", "result": "12.6 µM (inactive)"}, {"measurement": "GI50", "setting": "NCI-H522", "result": "16.1 µM (inactive)"}, {"measurement": "GI50", "setting": "OVCAR-3", "result": "18.7 µM (inactive)"}, {"measurement": "GI50", "setting": "OVCAR-4", "result": "16.1 µM (inactive)"}, {"measurement": "GI50", "setting": "OVCAR-5", "result": "10 µM (inactive)"}, {"measurement": "GI50", "setting": "OVCAR-8", "result": "26.7 µM (inactive)"}, {"measurement": "GI50", "setting": "RPMI-8226", "result": "16 µM (inactive)"}, {"measurement": "GI50", "setting": "RXF 393", "result": "17.1 µM (inactive)"}, {"measurement": "GI50", "setting": "SF-268", "result": "16.4 µM (inactive)"}, {"measurement": "GI50", "setting": "SF-295", "result": "13.8 µM (inactive)"}, {"measurement": "GI50", "setting": "SF-539", "result": "10 µM (inactive)"}, {"measurement": "GI50", "setting": "SK-MEL-28", "result": "15 µM (inactive)"}, {"measurement": "GI50", "setting": "SK-MEL-2", "result": "18.5 µM (inactive)"}, {"measurement": "GI50", "setting": "SK-MEL-5", "result": "0.1 µM (active)"}, {"measurement": "GI50", "setting": "SK-OV-3", "result": "43.8 µM (inactive)"}, {"measurement": "GI50", "setting": "SN12C", "result": "15.3 µM (inactive)"}, {"measurement": "GI50", "setting": "SNB-19", "result": "18.3 µM (inactive)"}, {"measurement": "GI50", "setting": "SNB-75", "result": "0.1 µM (active)"}, {"measurement": "GI50", "setting": "SNB-78", "result": "39.2 µM (inactive)"}, {"measurement": "GI50", "setting": "SR", "result": "15.9 µM (inactive)"}, {"measurement": "GI50", "setting": "SW-620", "result": "16.7 µM (inactive)"}, {"measurement": "GI50", "setting": "TK-10", "result": "40.5 µM (inactive)"}, {"measurement": "GI50", "setting": "U-251", "result": "12.2 µM (inactive)"}, {"measurement": "GI50", "setting": "UACC-257", "result": "14.5 µM (inactive)"}, {"measurement": "GI50", "setting": "UACC-62", "result": "16.5 µM (inactive)"}, {"measurement": "GI50", "setting": "UO-31", "result": "12.4 µM (inactive)"}]}]}
